Measurements published in paper PMC8630742, “Citrullinated Epitopes Identified on Tumour MHC Class II by Peptide Elution Stimulate Both Regulatory and Th1 Responses and Require Careful Selection for Optimal Anti-Tumour Responses” (Frontiers in Immunology, 2021).

Experiments:
[1] = tested on: splenocytes (IFNγ); experiment: Ex vivo IFNγ ELISpot assay on splenocytes of immunised mice; format: in vivo, mouse; details: for IFNγ response to immunising peptide / IFNγ response at lower (10µg) immunising peptide dose: HLA-DP4 transgenic mice; for IFNγ response to immunising peptide: 25µg single peptide with CpG and MPLA days 1, 8, 15, splenocytes day 21, 10 µg/mL peptide, Figure 2A; for IFNγ response at lower (10µg) immunising peptide dose: 10µg single peptide, Figure 2F; for IFNγ response in presence of CD4 blocking antibody: anti-CD4 OKT4 20µg/ml, C; for avidity of the immune response: titrating quantities of peptide in IFNγ ELISpot, Figure 2E
Procedure: (§1) For all studies, the mice were randomised into different groups but not blinded to the investigators. Peptides were dissolved in PBS and then emulsified with CpG (ODN 1826, Invivogen) and MPLA (Invivogen) and delivered at 10 or 25µg dose unless stated otherwise. Adjuvants were used at 5µg/dose. Peptides in adjuvant were injected subcutaneously at the base of the tail. Mice were immunised on day 1, 8 and 15 and spleens were removed for analysis at day 21.
ELISpot assays were performed using murine IFNγ and IL-10 capture and detection reagents according to the manufacturer’s instructions (Mabtech). In brief, the specific cytokine antibodies were coated onto wells of 96-well Immobilin-P plates. […] (RPMI medium 1640 (GIBCO/BRL) supplemented with 10% FCS (Sigma), 2mM L-glutamine (Sigma) and sodium bicarbonate buffered with additional 20mM HEPES (Sigma) and 50 µM 2-mercaptoethanol (2ME, Thermofisher). 5x10^5/well splenocytes were added in quadruplicate wells, plates were incubated for 40 hours at 37 °C/5% CO2. Cells with culture media only were added as negative control and cells cultured with 5 µg/ml Lipopolysaccharide (LPS, Sigma) were used as a positive control. Where relevant anti-CD4 (human clone OKT4, BioXcell) or CD8 (mouse clone 2.43, BioXcell) blocking antibodies were added to splenocytes at 20µg/ml for 15 minutes prior to stimulation with peptide. After incubation, captured cytokine was detected by biotinylated cytokine specific antibody and developed using streptavidin alkaline phosphatase and chromogenic substrate. Spots were analysed and counted using an automated plate reader (Cellular Technologies Ltd). Results were represented as spots/million splenocytes.

[2] = tested on: HLA-DP4; experiment: HLA-DP4 competition binding assay against biotinylated Hepatitis B peptide (membrane preps, ELISA); design: species or system human; details: Figure 1D; for binding of the reference Hepatitis B peptide in presence of competitor (% maximal binding): equal quantity of non-biotinylated competitor and 10 µg biotinylated HepB 181-193, B16HHDII/cDP4 membrane preps, 4 hrs 37°C, streptavidin ELISA, anti-HLA-DP; for competition with the Hepatitis B reference peptide: equal quantity of competitor and 10 µg biotinylated HepB 181-193
Procedure: Binding of peptides to HLA-DP4 was assessed by extraction of membrane fractions from B16HHDII/cDP4 cells using Mem-PER™ Plus Membrane Protein Extraction Kit (Thermo Fisher-Scientific) according to manufacturer’s instructions. Membrane preps containing HLA-DP4 were incubated with 10 µg biotinylated peptide for 4hrs at 37°C. For competition assays, the membrane preps and 10 µg biotinylated Hepatitis B peptide were pre-incubated in the presence of specified concentrations of non-biotinylated peptides. Biotinylated peptide bound to HLA-DP4 was detected by capture onto streptavidin-coated ELISA plates and detected with anti-HLA-DP antibody clone B7/21 (Leinco Technologies Inc, USA) and anti-mouse IgG3 HRP antibody (Invitrogen, UK). Binding was quantified with TMB substrate and absorbance read at 405nm wavelength.
Figure 1 Citrullinated peptide combination vaccination provides poor tumour therapy in HLA-DP4 transgenic mice. HLA-DP4 transgenic mice were challenged with B16 cells constitutively expressing DP4 (A) or expressing DP4 under an IFNγ inducible promoter (B) and four days later mice were immunised with combination of 10ug each of seven eluted peptides and tumour growth and survival monitored. N=10/group. (C), HLA-DP4 transgenic mice were immunised with seven peptide combination vaccine at days 1, 8 and 15 and immune responses monitored at day 21 by IFNγ ELISpot assay. Results are representative of at least two independent experiments in which n=3. (D), Competition of equal quantity of non-biotinylated competitor peptides in the presence of 10µg biotinylated HepB 181-193 peptide. Results are representative of at least two independent experiments.

[3] = tested on: B16/HHDII/cDP4 (B16cDP4) cells; experiment: Tumour therapy, B16cDP4 melanoma in HLA-DP4 transgenic mice; format: in vivo, mouse; details: for tumour free survival: 25ug individual peptide with CpG/MPLA, n=10/group, Figure 4A; for overall survival at day 50 / tumour growth: 25ug individual peptide, compared to unimmunised control, Figure 4
Procedure: as §1
For the tumour therapy studies, HHDII/DP4 transgenic mice were challenged by subcutaneous injection with 5 × 105 B16/HHDII/cDP4 (B16cDP4) cells or 1 × 105 B16/HHDII/iDP4 (B16iDP4) cells subcutaneously on the flank at day 1 and then immunised on days 4, 11 and 18. Tumour growth was monitored at 3–4 days intervals and mice were humanely euthanised once tumour approached 15mm diameter.

[4] = tested on: splenocytes (IL-10); experiment: Ex vivo IL-10 ELISpot assay on splenocytes of immunised mice; format: in vivo, mouse; details: for IL-10 response to immunising peptide: HLA-DP4 transgenic mice, 25ug single peptide with CpG/MPLA days 1, 8, 15, day 21, Figure 3A
Procedure: as §1
ELISpot assays were performed using murine IFNγ and IL-10 capture and detection reagents according to the manufacturer’s instructions (Mabtech). In brief, the specific cytokine antibodies were coated onto wells of 96-well Immobilin-P plates. Synthetic peptides (Genescript) were used at 10 µg/mL and diluted in culture media (RPMI medium 1640 (GIBCO/BRL) supplemented with 10% FCS (Sigma), 2mM L-glutamine (Sigma) and sodium bicarbonate buffered with additional 20mM HEPES (Sigma) and 50 µM 2-mercaptoethanol (2ME, Thermofisher). 5x10^5/well splenocytes were added in quadruplicate wells, plates were incubated for 40 hours at 37 °C/5% CO2. Cells with culture media only were added as negative control and cells cultured with 5 µg/ml Lipopolysaccharide (LPS, Sigma) were used as a positive control. Where relevant anti-CD4 (human clone OKT4, BioXcell) or CD8 (mouse clone 2.43, BioXcell) blocking antibodies were added to splenocytes at 20µg/ml for 15 minutes prior to stimulation with peptide. After incubation, captured cytokine was detected by biotinylated cytokine specific antibody and developed using streptavidin alkaline phosphatase and chromogenic substrate. Spots were analysed and counted using an automated plate reader (Cellular Technologies Ltd). Results were represented as spots/million splenocytes.

[5] = mice immunised with 25ug peptide, Figure 2B
[6] = mice immunised with 25ug peptide

| Substance | IFNγ response to immunising peptide [1] | binding of the reference Hepatitis B peptide in presence of competitor (% maximal binding) [2] | tumour free survival [3] | overall survival at day 50 / tumour growth [3] | IL-10 response to immunising peptide [4] | other results |
| --- | --- | --- | --- | --- | --- | --- |
| LEIY-cit-YTSFVPFTIPHSTTR [citCp450, Synthetic citrullinated peptide Cytochrome P450 1A2 373-392] | absence of any detectable IFNγ response | 40-50% | 20% | tumour growth similar to control | strong IL-10 response | IL-10 response in HHDII/DR1 mice ([4]; HHDII/DR1 compared to HHDII/DP4 mice, Figure 3C): fail to be stimulated; IL-10 response in presence of CD4 blocking antibody ([4]; mice immunised with 25ug citCp450, did not reach significance, Figure 3B): reduction in response; IL-10 response when delivered as part of the combination vaccine ([4]; seven peptide combination vaccine, Figure 3D): stimulated IL-10 responses |
| VFDWIRKERNQYGEVRV-cit-FNTYFFR [citMMP21, Synthetic citrullinated peptide Matrix metalloproteinase-21 337-360] | strong IFNγ responses | 40-50% | 90% | strong overall survival | some IL-10-producing cells | IFNγ response in HHDII/DR1 transgenic mice ([1]; HHDII/DR1 mice, Figure 2D): No responses; IFNγ response at lower (10µg) immunising peptide dose [1]: only the response to citMMP21 was observed; IFNγ response in presence of CD4 blocking antibody [1, 5]: reduced; IFNγ response in presence of CD8 blocking antibody ([1]; anti-CD8 2.43 20µg/ml, mice immunised with 25ug peptide, Figure 2C): No significant blocking; avidity of the immune response [1, 6]: 10^-8 M |
| EPKSSCYNTHEK-cit-IYQSNMLN-cit-YLI [citGRI, Synthetic citrullinated peptide Glutamate receptor ionotropic 316-340] | strong IFNγ responses | 40-50% | 70% | significant overall survival | some IL-10-producing cells | IFNγ response at lower (10µg) immunising peptide dose [1]: failed to stimulate an immune response; IFNγ response in presence of CD4 blocking antibody [1, 5]: efficiently blocked; avidity of the immune response [1, 6]: 10^-7 M |
| ML-cit-CASGAEL-cit-QPPRDVPPDAR [cit5T4, Synthetic citrullinated peptide Trophoblast glycoprotein-like protein 40-61] |  | 40-50% |  |  |  |  |
| EPKSSCYNTHEKRIYQSNMLNRYLI [GRI, synthetic native peptide Glutamate receptor ionotropic 316-340] |  |  |  |  |  | IFNγ response to unmodified peptide in mice immunised with the citrullinated peptide ([1]; mice immunised with 25ug citGRI, Figure 2B): cross reactivity |
| collagen [reference compound] |  |  |  |  |  | competition with the Hepatitis B reference peptide [2]: no competition |
| fibrinogen [reference compound] |  |  |  |  |  | competition with the Hepatitis B reference peptide [2]: no competition |
| MDEIDAIGG-cit-RFSEGTSADREIQ [cit26S-10B, Synthetic citrullinated peptide 26S protease regulatory subunit 10B 246-268] |  | 30-35% |  |  |  |  |
| NGQT-cit-EHALLAYTLGVKQLIVGVNK [citELO, Synthetic citrullinated peptide Elongation factor 1-alpha 1 130-154] |  | 40-50% |  |  |  |  |
| KRDVTLEAS-cit-ESSKP-cit-AVLKP-cit- [citSeThrePho, Synthetic citrullinated peptide Serine/threonine-protein phosphatase 2A 55 kDa regulatory subunit B gamma isoform 370-391] |  | 30-35% |  |  |  |  |
